Reference: US20080200405A1, “Drug Resistance Reversal In Neoplastic Disease” (priority 2007, published 2008)

What was measured:
[1] = In vitro stability of OT-551 in human plasma; assay type: in vitro ADME
Method: (§1) The active metabolite of OT-551 (Cyclopropanecarboxylic acid 1-hydroxy-2,2,6,6-tetramethyl-piperidin-4-yl ester) is TP-H. The objective of this analysis was to determine the in vitro half-life of OT-551 in rat, rabbit, dog, and human plasma under standardized incubation conditions.
(§2) OT-551 was incubated with pooled rat, rabbit, dog, and human plasma for various times under standardized incubation conditions. Pre-labeled tubes containing pooled plasma from rats, rabbits, dogs, and humans were pre-incubated in a shaking 37° C. water bath. A OT-551 solution was added to the tubes at a final concentration of 1000 ng/mL. Time zero samples (n=5) were immediately removed and transferred into tubes containing a stabilizer solution (DTPA, acetylcysteine and ascorbic acid), the LC/MS/MS assay internal standard and methanol. […] The tubes were vortexed, placed on ice, followed by centrifugation. One hundred-μL aliquots of the supernatant were transferred into HPLC sample vials. Additional tubes (n=5 at each time point) were incubated for 5, 10, 20, 30, 60, 120, and 240 minutes at 37° C. and thereafter processed. The amount of OT-551 and TP-H in each incubated sample was quantified using validated LC/MS/MS assays.

mouse V79 cells = conditions: cited from earlier work
[2] = test system: bFGF-induced angiogenesis in the CAM model; assay: bFGF (FGF2)-stimulated CAM model; assay type: in vivo, chicken; conditions: for Mean % Inhibition ± SD / Mean Branch points ± SEM: bFGF 1 μg/ml
TNFα = assay: Measurement of LPS Induced-TNFα in THP-1 Cells; assay type: cell-based, human; conditions: compound 10 uM, 5 ng/mL LPS
[3] = test system: VEGF-induced angiogenesis in the CAM model; assay: VEGF-induced angiogenesis in the CAM model; assay type: in vivo, chicken; conditions: for Mean % Inhibition ± SD / Mean Branch points ± SD: VEGF 2 μg/ml
Method: In vivo neovascularization was examined by the method previously described by Auerbach et al. (J. Dev. Biol. 41:391-394 (1974)). Ten-day old chicken embryos were purchased from Spafas, Inc. (Preston, Conn.) and were incubated at 37° C. with 55% relative humidity. In the dark, with the aid of a candling lamp, a small hole was punctured in the shell concealing the air sac with a hypodermic needle. A second hole was punctured in the shell on the broadside of the egg directly over an […] portion of the embryonic membrane, as observed during candling. An artificial air sac was created beneath the second hole by applying gentle vacuum to the first hole using a small rubber squeeze bulb. The vacuum caused the chorioallantoic membrane (CAM) to separate from the shell.
A pro-angiogenic agent was added to induce new blood vessel branches on the CAM of 10-day old embryos. Filter disks of #1 filter paper (Whatman International, United Kingdom) were punched using a small puncher and were soaked in 3 mg/mL cortisone acetate (Sigma, St. Louis, Mo.) in a solution (95% ethanol and water). The disks were subsequently air dried under sterile conditions. The disks were then suspended in PBS (Phosphate Buffered Saline) and placed on growing CAMs. Filters treated with TP-H (TEMPOL-H) or TEMPOL and/or H2O2 or TP-H and/or bFGF or VEGF were placed on the first day of the 3-day incubation.
The number of vessel branch points contained in a circular region equal to the area of a filter disk was counted for each section. Percent inhibition data are expressed as the quotient of the experimental value minus the negative control value divided by the difference between the positive control value and the negative control value. One image was counted in each CAM preparation, and findings from eight CAM preparations were analyzed for each treatment condition. In addition, each experiment was performed three times. The resulting angiogenesis index is the mean ±SEM (Standard Error of Measurement) of new branch points in each set of treatment. Statistical analysis of blood vessel branching patterns are performed by 1-way analysis of variance (ANOVA) comparing experimental with corresponding control groups. Statistical significance differences are assessed at P value of <0.05.
TP-H was applied to the CAM model study to determine its respective anti-angiogenesis effects according to the materials and methods described above. VEGF was used to induce angiogenesis in the CAM model.

[4] = In vitro stability of OT-551 in rat plasma; assay type: in vitro ADME
Method: as §1, §2

[5] = Ocular permeability and retina levels after topical administration; assay type: in vivo

Structure (SMILES): CC1(C)CC(O)CC(C)(C)N1O [TEMPOL-H]
- Concentrations (ng/mL) of TP-H in Human Plasma ([1]; OT-551 incubation time 0 min): 48.76 ± 2.84 ng/mL
- Concentrations (ng/mL) of TP-H in Human Plasma ([1]; OT-551 incubation time 5 min): 186.71 ± 4.58 ng/mL
- Concentrations (ng/mL) of TP-H in Human Plasma ([1]; OT-551 incubation time 10 min): 241.99 ± 8.05 ng/mL
- Concentrations (ng/mL) of TP-H in Human Plasma ([1]; OT-551 incubation time 20 min): 310.10 ± 8.54 ng/mL
- Concentrations (ng/mL) of TP-H in Human Plasma ([1]; OT-551 incubation time 30 min): 365.53 ± 14.44 ng/mL
- Concentrations (ng/mL) of TP-H in Human Plasma ([1]; OT-551 incubation time 60 min): 449.85 ± 9.73 ng/mL
- Concentrations (ng/mL) of TP-H in Human Plasma ([1]; OT-551 incubation time 120 min): 519.12 ± 19.52 ng/mL
- Concentrations (ng/mL) of TP-H in Human Plasma ([1]; OT-551 incubation time 240 min): 501.39 ± 11.33 ng/mL
- radioprotection of mouse V79 cells (mouse V79 cells): did not provide any radioprotection
- inhibition of bFGF-induced angiogenesis ([2]; 100-400 μg): dose-dependent inhibition
- Mean % Inhibition ± SD ([2]; 100 μg): 20 ± 12%
- Mean Branch points ± SEM ([2]; 100 μg): 172 ± 12.4
- Mean % Inhibition ± SD ([2]; 200 μg): 45.3 ± 7.5 %
- Mean Branch points ± SEM ([2]; 200 μg): 147.2 ± 7.5
- Mean % Inhibition ± SD ([2]; 400 μg): 58.7 ± 10.9 %
- Mean Branch points ± SEM ([2]; 400 μg): 133.8 ± 10.8
- Mean % Inhibition ± SD ([2]; 800 μg): 28.1 ± 6.8 %
- Mean Branch points ± SEM ([2]; 800 μg): 164.2 ± 6.7
- Mean Percent Inhibition of TNF-alpha using 5 ng/mL LPS (TNFα): 74 ± 8%
- Mean % Inhibition ± SD ([3]; 100 μg): 37.6 ± 6.9 %
- Mean Branch points ± SD ([3]; 100 μg): 154.8 ± 7.5
- Mean % Inhibition ± SD ([3]; 200 μg): 42 ± 3.5 %
- Mean Branch points ± SD ([3]; 200 μg): 150 ± 3.8
- Mean % Inhibition ± SD ([3]; 400 μg): 53.3 ± 3.3 %
- Mean Branch points ± SD ([3]; 400 μg): 137.8 ± 3.0
- Mean % Inhibition ± SD ([3]; 800 μg): 70.7 ± 9.1 %
- Mean Branch points ± SD ([3]; 800 μg): 118.8 ± 9.9
- inhibition of VEGF-induced angiogenesis ([3]; in vivo): dose-dependent inhibition
- Concentrations (ng/mL) of TP-H in Rat Plasma ([4]; OT-551 incubation time 0 min): 10.23 ± 1.59 ng/mL
- Concentrations (ng/mL) of TP-H in Rat Plasma ([4]; OT-551 incubation time 5 min): 30.47 ± 1.65 ng/mL
- Concentrations (ng/mL) of TP-H in Rat Plasma ([4]; OT-551 incubation time 10 min): 50.91 ± 2.11 ng/mL
- Concentrations (ng/mL) of TP-H in Rat Plasma ([4]; OT-551 incubation time 20 min): 86.30 ± 3.30 ng/mL
- Concentrations (ng/mL) of TP-H in Rat Plasma ([4]; OT-551 incubation time 30 min): 119.63 ± 7.08 ng/mL
- Concentrations (ng/mL) of TP-H in Rat Plasma ([4]; OT-551 incubation time 60 min): 201.94 ± 4.19 ng/mL
- Concentrations (ng/mL) of TP-H in Rat Plasma ([4]; OT-551 incubation time 120 min): 304.66 ± 7.27 ng/mL
- Concentrations (ng/mL) of TP-H in Rat Plasma ([4]; OT-551 incubation time 240 min): 362.66 ± 7.50 ng/mL

Structure (SMILES): CC1(C)CC(OC(=O)C2CC2)CC(C)(C)N1O.Cl [OT-551, 1-hydroxy-4-cyclopropanecarbonyloxy-2,2,6,6-tetramethylpiperidine hydrochloride]
- Concentrations (ng/mL) of OT-551 in Human Plasma ([1]; incubation time 0 min): 775.47 ± 22.50 ng/mL
- Concentrations (ng/mL) of OT-551 in Human Plasma ([1]; incubation time 5 min): 593.43 ± 7.55 ng/mL
- Concentrations (ng/mL) of OT-551 in Human Plasma ([1]; incubation time 10 min): 503.18 ± 20.90 ng/mL
- Concentrations (ng/mL) of OT-551 in Human Plasma ([1]; incubation time 20 min): 394.69 ± 6.72 ng/mL
- Concentrations (ng/mL) of OT-551 in Human Plasma ([1]; incubation time 30 min): 316.37 ± 7.67 ng/mL
- Concentrations (ng/mL) of OT-551 in Human Plasma ([1]; incubation time 60 min): 162.41 ± 9.77 ng/mL
- Concentrations (ng/mL) of OT-551 in Human Plasma ([1]; incubation time 120 min): 32.22 ± 2.63 ng/mL
- Concentrations (ng/mL) of OT-551 in Human Plasma ([1]; incubation time 240 min): 0.00 ± 0.00 ng/mL
- inhibition in vivo at 0.03 mg ([2]; Gallus gallus, bFGF/FGF2 1 ug, 30 ug injected, read-out: % Inhibition ± SEM): 74 ± 4%
- Branch pts ± SEM ([2]; bFGF/FGF2 1 ug, 30 ug injected): 87 ± 3
- inhibition at 10 µM (TNFα; Homo sapiens, THP-1, read-out: Mean Percent Inhibition of TNF-alpha using 5 ng/mL LPS): 68 ± 6%
- Concentrations (ng/mL) of OT-551 in Rat Plasma ([4]; incubation time 0 min): 806.50 ± 86.77 ng/mL
- Concentrations (ng/mL) of OT-551 in Rat Plasma ([4]; incubation time 5 min): 770.32 ± 20.66 ng/mL
- Concentrations (ng/mL) of OT-551 in Rat Plasma ([4]; incubation time 10 min): 745.77 ± 15.50 ng/mL
- Concentrations (ng/mL) of OT-551 in Rat Plasma ([4]; incubation time 20 min): 682.88 ± 16.94 ng/mL
- Concentrations (ng/mL) of OT-551 in Rat Plasma ([4]; incubation time 30 min): 613.79 ± 25.84 ng/mL
- Concentrations (ng/mL) of OT-551 in Rat Plasma ([4]; incubation time 60 min): 480.48 ± 10.69 ng/mL
- Concentrations (ng/mL) of OT-551 in Rat Plasma ([4]; incubation time 120 min): 277.94 ± 5.55 ng/mL
- Concentrations (ng/mL) of OT-551 in Rat Plasma ([4]; incubation time 240 min): 80.70 ± 2.02 ng/mL
- levels in the retina ([5]; after topical administration): good levels in the retina
- permeability through the cornea ([5]; in vivo): good permeability through the cornea
